Some results are limits rather than exact numbers.

The target in one test is hNET (Homo sapiens, UniProt P23975). Nature of the test: hNET membrane radioligand binding assay (3H-nisoxetine), Assay 1.
A further test deals with hSERT (Homo sapiens, UniProt P31645). In words: hSERT membrane radioligand binding assay (3H-citalopram), Assay 1. The note with it: SERT pKi, hSERT HEK-293 membranes, 1.0 nM 3H-citalopram; values given as lower bounds.
hSERT, sequence (P31645 whole entry): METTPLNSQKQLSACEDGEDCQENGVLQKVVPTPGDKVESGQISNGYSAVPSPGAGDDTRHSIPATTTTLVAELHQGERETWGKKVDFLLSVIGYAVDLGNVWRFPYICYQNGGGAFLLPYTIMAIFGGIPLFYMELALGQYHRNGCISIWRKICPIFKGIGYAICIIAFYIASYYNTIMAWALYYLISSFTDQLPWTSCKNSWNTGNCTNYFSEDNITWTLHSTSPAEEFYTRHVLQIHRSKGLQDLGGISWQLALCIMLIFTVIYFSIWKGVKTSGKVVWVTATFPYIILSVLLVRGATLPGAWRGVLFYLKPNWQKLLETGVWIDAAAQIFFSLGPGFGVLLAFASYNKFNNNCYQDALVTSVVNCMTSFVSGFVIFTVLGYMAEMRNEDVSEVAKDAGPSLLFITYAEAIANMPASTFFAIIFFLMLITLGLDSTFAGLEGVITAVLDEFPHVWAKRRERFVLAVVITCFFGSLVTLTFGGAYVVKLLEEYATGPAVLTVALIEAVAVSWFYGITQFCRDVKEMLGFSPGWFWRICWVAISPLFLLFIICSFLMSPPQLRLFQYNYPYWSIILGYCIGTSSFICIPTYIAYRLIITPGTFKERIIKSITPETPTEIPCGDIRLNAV

hNET, sequence (P23975 whole entry): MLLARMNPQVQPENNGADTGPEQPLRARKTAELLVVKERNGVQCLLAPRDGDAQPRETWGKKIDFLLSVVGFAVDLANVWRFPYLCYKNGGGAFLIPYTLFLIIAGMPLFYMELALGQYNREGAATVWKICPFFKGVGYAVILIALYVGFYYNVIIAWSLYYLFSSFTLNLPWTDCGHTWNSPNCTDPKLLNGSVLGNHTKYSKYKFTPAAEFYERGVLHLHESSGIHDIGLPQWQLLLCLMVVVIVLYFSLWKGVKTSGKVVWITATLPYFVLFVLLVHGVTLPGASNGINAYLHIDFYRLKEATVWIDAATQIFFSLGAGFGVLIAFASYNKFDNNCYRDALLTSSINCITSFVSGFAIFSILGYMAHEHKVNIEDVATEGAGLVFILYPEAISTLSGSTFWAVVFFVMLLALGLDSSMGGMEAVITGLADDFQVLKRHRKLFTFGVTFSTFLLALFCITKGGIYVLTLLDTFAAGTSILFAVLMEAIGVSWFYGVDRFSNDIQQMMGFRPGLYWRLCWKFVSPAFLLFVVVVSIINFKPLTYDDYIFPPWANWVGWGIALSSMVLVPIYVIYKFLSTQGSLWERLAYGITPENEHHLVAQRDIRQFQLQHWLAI
Description for hSERT: Membrane radioligand binding assays were used to measure inhibition of labeled ligand (^3H-citalopram or ^3H-nisoxetine or ^3H-WIN35428) binding to membranes prepared from cells expressing the respective human recombinant transporter (hSERT or hNET or hDAT) in order to determine the pKi values of test compounds at the transporters.
Recombinant human embryonic kidney (HEK-293) derived cell lines stably transfected with hSERT or hNET, respectively, were grown in DMEM medium supplemented with 10% dialyzed FBS (for hSERT) or FBS (for hNET), 100 μg/mL penicillin, 100 μg/mL streptomycin, 2 mM L-glutamine and 250 μg/mL of the aminoglycoside antibiotic G418, in a 5% CO2 humidified incubator at 37° C. When cultures reached 80% confluence, the cells were washed thoroughly in PBS (without Ca^2+ and Mg^2+) and lifted with 5 mM EDTA in PBS. Cells were pelleted by centrifugation, resuspended in lysis buffer (10 mM Tris-HCl, pH7.5 containing 1 mM EDTA), homogenized, pelleted by centrifugation, then resuspended in 50 mM Tris-HCl, pH 7.5 and 10% sucrose at 4° C. Protein concentration of the membrane suspension was determined using a Bio-Rad Bradford Protein Assay kit. Membranes were snap frozen and stored at −80° C.
Binding assays were performed in a 96-well assay plate in a total volume of 200 μl assay buffer (50 mM Tris-HCl, 120 mM NaCl, 5 mM KCl, pH 7.4) with 0.5, 1, and 3 μg membrane protein, for SERT, NET and DAT, respectively.
Stock solutions (10 mM in DMSO) of test compound were prepared and serial dilutions made using Dilution Buffer (50 mM Tris-HCl, 120 mM NaCl, 5 mM KCl, pH 7.4, 0.1% BSA, 400 μM ascorbic acid).
Following a 60 minute incubation at 22° C. (or a period sufficient to reach equilibrium), the membranes were harvested by rapid filtration over a 96-well UniFilter GF/B plate, pretreated with 0.3% polyethyleneimine, and washed 6 times with 300 μl wash buffer (50 mM Tris-HCl, 0.9% NaCl, pH 7.5 at 4° C.). Plates were dried overnight at room temperature, approximately 45 μl of MicroScint™-20 (Perkin Elmer) added and bound radioactivity quantitated via liquid scintillation spectroscopy. Inhibition curves and saturation isotherms were analyzed using GraphPad Prism Software package (GraphPad Software, Inc., San Diego, Calif.). IC50 values were generated from concentration response curves using the Sigmoidal Dose Response (variable slope) algorithm in Prism GraphPad.

With `CCC[C@H](Oc1ccc(Cl)cc1C(F)(F)F)[C@H]1CCNC1` [Example 4-64, (S)-3-[(S)-1-(4-Chloro-2-trifluoromethylphenoxy)butyl]pyrrolidine], the Ki on hNET and at hSERT was at most 10 nM throughout.
Regarding `CC(C)C(Oc1ccccc1F)C1CCNC1` (stereo not drawn) [Example 6-2, 3-[1-(2-Fluorophenoxy)-2-methylpropyl]pyrrolidine], the Ki at hNET and on hSERT was at most 100 nM each time.
With `Cc1ccc(Cl)c(O[C@H](C2CC2)[C@H]2CCNC2)c1F` [Example 16-69, (S)-3-[(R)-(6-Chloro-2-fluoro-3-methylphenoxy)cyclopropylmethyl]pyrrolidine], the results for the Ki on hNET and at hSERT were at most 10 nM and at most 100 nM, respectively.
The matching figures for `CC(C)C[C@H](Oc1ccc(Cl)cc1Cl)[C@@H]1CCNC1` [Example 10-43, (R)-3-[(S)-1-(2,4-Dichlorophenoxy)-3-methylbutyl]pyrrolidine]: at most 100 nM and at most 10 nM.
On the same counts, the results for `CCC[C@@H](Oc1ccc(Cl)cc1C(F)(F)F)[C@H]1CCNC1` [Example 4-65, (S)-3-[(R)-1-(4-Chloro-2-trifluoromethylphenoxy)butyl]pyrrolidine] are at most 100 nM and at most 100 nM.
On the same counts, the results for `CCCC[C@@H](Oc1ccc(Cl)cc1Cl)[C@H]1CCNC1` [Example 8-8, (S)-3-[(R)-1-(2,4-Dichlorophenoxy)pentyl]pyrrolidine] are at most 10 nM and at most 10 nM.
In the case of `CC[C@H](Oc1c(F)cccc1F)[C@H]1CCNC1` [Example 2-49, (S)-3-[(S)-1-(2,6-Difluorophenoxy)propyl]pyrrolidine], the Ki (commonly the equilibrium dissociation constant of an inhibitor or competing ligand from its target) is at most 10 nM on hNET and at most 100 nM on hSERT.
`Clc1ccc(O[C@H](C2CC2)[C@H]2CCNC2)c(Cl)c1` [Example 16-20, (S)-3-[(R)cyclopropyl-(2,4-dichlorophenoxy)methyl]pyrrolidine]: the Ki on hNET is at most 100 nM; at hSERT it was at most 10 nM.
As for `CCC[C@@H](Oc1c(Cl)cccc1Cl)[C@H]1CCNC1` [Example 4-34, (S)-3-[(R)-1-(2,6-Dichlorophenoxy)butyl]pyrrolidine], the Ki at hNET was at most 10 nM; on hSERT it was at most 100 nM.
The matching figures for `CC(=O)c1ccccc1O[C@@H](C1CCCCC1)[C@@H]1CCNC1` [Example 20-4, 1-[2-((R)-Cyclohexyl-(S)-pyrrolidin-3-yl-methoxy)phenyl]ethanone]: at most 10 nM and at most 100 nM.
On the same counts, the results for `CC[C@@H](Oc1ccc(Cl)cc1C)[C@H]1CCNC1` [Example 2-59, (S)-3-[(R)-1-(4-Chloro-2-methylphenoxy)propyl]pyrrolidine] are at most 100 nM and at most 10 nM.
On the same counts, the results for `FC(F)(F)c1cc(Cl)ccc1O[C@@H](C1CC1)[C@H]1CCNC1` [Example 16-35, (S)-3-[(S)-(4-Chloro-2-trifluoromethylphenoxy)cyclopropylmethyl]pyrrolidine] are at most 10 nM and at most 10 nM.
Consider `CC[C@@H](Oc1ccc(Cl)cc1)[C@@H]1CCNC1` [Example 2-3, (R)-3-[(R)-1-(4-Chlorophenoxy)propyl]pyrrolidine], for which the Ki is at most 100 nM on hNET and at most 10 nM on hSERT.
On the same counts, the results for `CCC[C@@H](Oc1ccc(Cl)cc1C)[C@H]1CCNC1` [Example 4-60, (S)-3-[(R)-1-(4-Chloro-2-methylphenoxy)butyl]pyrrolidine] are at most 100 nM and at most 10 nM.
On the same counts, the results for `CCC[C@H](Oc1c(Cl)cccc1Cl)[C@@H]1CCNC1` [Example 4-35, (R)-3-[(S)-1-(2,6-Dichlorophenoxy)butyl]pyrrolidine] are at most 100 nM and at most 100 nM.
The matching figures for `Clc1cccc(O[C@@H](C2CC2)[C@@H]2CCNC2)c1Cl` [Example 16-6, (R)-3-[(S)cyclopropyl-(2,3-dichlorophenoxy)methyl]pyrrolidine]: at most 100 nM and at most 10 nM.
Take `CC[C@H](Oc1ccccc1OC)[C@H]1CCNC1` [Example 2-67, (S)-3-[(S)-1-(2-Methoxyphenoxy)propyl]pyrrolidine]: the Ki is at most 10 nM on hNET and at most 100 nM on hSERT.
On the same counts, the results for `CC[C@H](Oc1cccc(F)c1)[C@H]1CCNC1` [Example 2-9, (S)-3-[(S)-1-(3-Fluorophenoxy)propyl]pyrrolidine] are at most 10 nM and at most 100 nM.
Take `FC1(F)CCC(C(Oc2cc(Cl)cc(Cl)c2)C2CCNC2)CC1` (stereo not drawn) [Example 21, 3-[(3,5-Dichloro-phenoxy)-(4,4-difluorocyclohexyl)methyl]pyrrolidine]: the inhibitory constant (Ki) on hNET and on hSERT was at most 10 nM each time.
In the case of `FC(F)(F)c1c(Cl)cccc1O[C@H](C1CC1)[C@H]1CCNC1` [Example 16-17, (S)-3-[(R)-(3-Chloro-2-trifluoromethylphenoxy)cyclopropylmethyl]pyrrolidine], the Ki on hNET is at most 100 nM; at hSERT, at most 10 nM.
The matching figures for `C=CC[C@@H](Oc1ccc(Cl)cc1C)[C@H]1CCNC1` [Example 25-2, (S)-3-[(R)-1-(4-Chloro-2-methylphenoxy)but-3-enyl]pyrrolidine]: at most 100 nM and at most 10 nM.
The matching figures for `CCC[C@H](Oc1ccc(Cl)cc1C(F)(F)F)[C@@H]1CCNC1` [Example 4-66, (R)-3-[(S)-1-(4-Chloro-2-trifluoromethylphenoxy)butyl]pyrrolidine]: at most 100 nM and at most 10 nM.
On the same counts, the results for `CCC[C@H](Oc1ccc(Cl)cc1)[C@@H]1CCNC1` [Example 4-3, (R)-3-[(S)-1-(4-Chlorophenoxy)butyl]pyrrolidine] are at most 100 nM and at most 10 nM.
In the case of `CC(C)CC(Oc1cccc(F)c1)C1CCNC1` (stereo not drawn) [Example 10-6, 3-[1-(3-Fluorophenoxy)-3-methylbutyl]pyrrolidine], the figures for the Ki on hNET and at hSERT were at most 10 nM and at most 100 nM, respectively.
The matching figures for `CC(C)C(Oc1ccc(F)cc1)C1CCNC1` (stereo not drawn) [Example 6-73, 3-[1-(4-Fluorophenoxy)-2-methylpropyl]pyrrolidine]: at most 100 nM and at most 100 nM.
On the same counts, the results for `CCC[C@@H](Oc1ccccc1Cl)[C@@H]1CCNC1` [Example 4-22, (R)-3-[(R)-1-(2-Chlorophenoxy)butyl]pyrrolidine] are at most 10 nM and at most 100 nM.
On the same counts, the results for `CC(C)C[C@H](Oc1ccc(Cl)cc1)[C@@H]1CCNC1` [Example 10-12, (R)-3-[(S)-1-(4-Chlorophenoxy)-3-methylbutyl]pyrrolidine] are at most 100 nM and at most 10 nM.
Regarding `COc1cc(F)ccc1O[C@@H](C1CC1)[C@H]1CCNC1` [Example 16-40, (S)-3-[(S)cyclopropyl-(4-fluoro-2-methoxyphenoxy)methyl]pyrrolidine], the Ki on hNET is at most 10 nM; on hSERT, at most 100 nM.
On the same counts, the results for `CCC[C@@H](Oc1ccc(Cl)cc1C(F)(F)F)[C@@H]1CCNC1` [Example 4-67, (R)-3-[(R)-1-(4-Chloro-2-trifluoromethylphenoxy)butyl]pyrrolidine] are at most 100 nM and at most 10 nM.
On the same counts, the results for `COc1c(Cl)cccc1O[C@@H](C1CC1)[C@H]1CCNC1` [Example 16-18, (S)-3-[(S)-(3-Chloro-2-methoxyphenoxy)cyclopropylmethyl]pyrrolidine] are at most 10 nM and at most 100 nM.

The values are drawn from patent US7994209B2, “3-phenoxymethylpyrrolidine compounds” (Theravance, Inc., priority 2009, dated 2011).
